Reference: article PMC4306533, “Distinct Features of Cap Binding by eIF4E1b Proteins” (Journal of Molecular Biology, 2015)

Columns and labels:
[1] = system: rabbit reticulocyte lysate system (RRL); details: cited from earlier work
in vitro translation = system: in vitro translation; design: method as in PMID 10387101; details: Cai et al.; read-out: IC50 (inhibitory potency); cited from earlier work
heIF4E1b [2] = target: T1, heIF4E1b (Homo sapiens, UniProt A6NMX2); assay: time-synchronized fluorescence titration of cap analogue binding; details: equilibrium association constant; buffer without glycerol
T1 construct: made in house; host or cells: E. coli Rosetta2(DE3)
T1 sequence (A6NMX2 1-242): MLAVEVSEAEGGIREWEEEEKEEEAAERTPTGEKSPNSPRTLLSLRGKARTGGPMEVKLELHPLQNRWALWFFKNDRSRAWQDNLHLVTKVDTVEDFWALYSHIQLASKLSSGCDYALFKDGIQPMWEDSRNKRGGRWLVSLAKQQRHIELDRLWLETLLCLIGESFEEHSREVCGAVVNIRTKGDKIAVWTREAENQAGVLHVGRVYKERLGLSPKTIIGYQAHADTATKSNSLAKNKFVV
Text: (§1) The time-synchronized fluorescence titration method, widely used to determine the affinity constants of cap–eIF4E complexes [[20,22–26]], measures the quenching of the intrinsic fluorescence of tryptophan residues due to cap binding (Fig. S2). Knowledge of the equilibrium association constant Kas enables the calculation of the free-energy changes involved in the interaction between eIF4E and ligand, according to the standard equation ΔG° = − RTlnKas.
(§2) For human eIF4E1a and eIF4E1b and also for Xenopus eIF4E1a and its mutated forms, measurements were carried out using 0.1 μM protein in 50 mM Hepes/KOH (pH 7.2), 134.5 mM KCl, 0.5 mM EDTA and 1 mM DTT. For Xenopus eIF4E1b(ΔN27), the concentration was 0.2 μM and glycerol was added to the buffer to 10% (v/v) final concentration. […] Fluorescence of measured samples was excited at 280 nm (2.5 nm bandwidth) and detected at 337 nm or 330 nm (4 nm bandwidth), thus reducing the signal originated from the free cap analogues. Measurements were carried out on a LS-55 spectrofluorometer (Perkin Elmer Co.) using freshly prepared proteins, and the fluorescence intensities were corrected for sample dilution and the inner filter effect.
(§3) Equilibrium association constants (Kas) were determined by fitting the theoretical dependence of fluorescence intensity on the total concentration of the cap analogue to the experimental data points, according to the equation described previously (see Ref. [22] and Fig. S2c).
(§4) The final Kas was calculated as a weighted average of 2–6 independent titrations with the weights taken as the reciprocal of the numerical standard deviation squared. Numerical, nonlinear least-squares regression analysis was performed using Origin 6.0 (Microcal Software Inc.). Obtained association constants were used to determine the Gibbs free energy according to the standard equation ΔG° = − RTlnKas.

XeIF4E1a [3] = target: T2, XeIF4E1a (Xenopus laevis, UniProt P48597); assay: as above; details: equilibrium association constant; for Kas + glycerol XeIF4E1a: 10% glycerol; for Kas − glycerol XeIF4E1a: buffer without glycerol
T2 construct: made in house; host or cells: E. coli Rosetta2(DE3)
Text: as §1, §2, §3, §4

eIF4E1a [4] = target: eIF4E1a; design: method as in PMID 19351181; details: Ghosh et al.; cited from earlier work
X4E1a1’ (K102R) = target: T3, X4E1a1’ (K102R) (Xenopus laevis, UniProt P48597, K102R); assay: fluorescence titration, XeIF4E1a mutant; assay type: binding; details: mutant (K102R) of XeIF4E1a
T3 construct: made in house; host or cells: E. coli Rosetta2(DE3)
Text: (§5) We tested the effect on cap-binding activity of these positions in the fluorescence assay with six mutated recombinant versions of Xenopus eIF4E1a (Fig. S4). The amino acids were introduced in XeIF4E1a sequentially in the order: E101S/K102R/S195A/M82S/T206L/T207S (numbering of the XeIF4E1a sequence is shifted backward by 4 amino acids relative to XeIF4E1b). […] The biggest contribution to the weaker cap binding of XeIF4E1a, in each case about 20%, resulted from changing Glu101 to Ser and Thr206 to Leu coupled with Thr207 to Ser, with the remaining mutations having only minor effects. […] Glu101 is a solvent-accessible amino acid and is proximal to Trp98 in the S3-S4 loop. […] Attenuation of the cap-binding affinity of XeIF4E1a resulting from mutating Thr206 and Thr207 is consistent with our results mentioned above showing significant influence of C-terminal loop residues on binding phosphate and the second nucleotide.
(§6) For human eIF4E1a and eIF4E1b and also for Xenopus eIF4E1a and its mutated forms, measurements were carried out using 0.1 μM protein in 50 mM Hepes/KOH (pH 7.2), 134.5 mM KCl, 0.5 mM EDTA and 1 mM DTT. For Xenopus eIF4E1b(ΔN27), the concentration was 0.2 μM and glycerol was added to the buffer to 10% (v/v) final concentration. […] The gradually increasing concentration of cap analogue quenches protein fluorescence without shifting the spectrum maximum, while at high concentrations, the fluorescence signal of free cap analogue dominates over the fluorescence from other solution components including free eIF4E and eIF4E in complex with cap (Fig. S2a). Fluorescence of measured samples was excited at 280 nm (2.5 nm bandwidth) and detected at 337 nm or 330 nm (4 nm bandwidth), thus reducing the signal originated from the free cap analogues. Measurements were carried out on a LS-55 spectrofluorometer (Perkin Elmer Co.) using freshly prepared proteins, and the fluorescence intensities were corrected for sample dilution and the inner filter effect.
(§7) Equilibrium association constants (Kas) were determined by fitting the theoretical dependence of fluorescence intensity on the total concentration of the cap analogue to the experimental data points, according to the equation described previously (see Ref. [22] and Fig. S2c). […] Along with Kas and the concentration of the active protein [P0^act], other parameters such as fL and ∆f = fPact − fPL are also gained from the fit, where fL represents the fluorescence efficiency of free cap analogue and ∆f represents the difference between the fluorescence efficiencies of the apo-protein and the complex (Fig. S2c).
as §4

X4E1a1 (E101S) = target: T4, X4E1a1 (E101S) (Xenopus laevis, UniProt P48597, E101S); assay: fluorescence titration, XeIF4E1a mutant; assay type: binding; details: mutant (E101S) of XeIF4E1a
T4 construct: made in house; host or cells: E. coli Rosetta2(DE3)
Text: as §5, §6, §7, §4

[5] = target: T5, X4E1a4 (E101S/K102R/S195A/M82S) (Xenopus laevis, UniProt P48597, E101S/K102R/M82S/S195A); assay: fluorescence titration, XeIF4E1a mutant; assay type: binding; details: mutant (E101S/K102R/S195A/M82S) of XeIF4E1a
T5 construct: made in house; host or cells: E. coli Rosetta2(DE3)
Text: as §5, §6, §7, §4

[6] = target: T6, X4E1a3 (E101S/K102R/S195A) (Xenopus laevis, UniProt P48597, E101S/K102R/S195A); assay: fluorescence titration, XeIF4E1a mutant; assay type: binding; details: mutant (E101S/K102R/S195A) of XeIF4E1a
T6 construct: made in house; host or cells: E. coli Rosetta2(DE3)
Text: as §5, §6, §7, §4

[7] = target: T7, X4E1a6 (E101S/K102R/S195A/M82S/T206L/T207S) (Xenopus laevis, UniProt P48597, E101S/K102R/M82S/S195A/T206L/T207S); assay: fluorescence titration, XeIF4E1a mutant; assay type: binding
T7 construct: made in house; host or cells: E. coli Rosetta2(DE3)
Text: as §5, §6, §7, §4

X4E1a2 (E101S/K102R) = target: T8, X4E1a2 (E101S/K102R) (Xenopus laevis, UniProt P48597, E101S/K102R); assay: fluorescence titration, XeIF4E1a mutant; assay type: binding; details: mutant (E101S/K102R) of XeIF4E1a
T8 construct: made in house; host or cells: E. coli Rosetta2(DE3)
Text: as §5, §6, §7, §4

heIF4E1a = target: T9, heIF4E1a (Homo sapiens, UniProt P06730); design: method as in PMID 17369309; details: equilibrium association constant; buffer without glycerol; footnote b; cited from earlier work
T9 construct: made in house; host or cells: E. coli Rosetta2(DE3)

XeIF4E1bΔN27 = assay: time-synchronized fluorescence titration of cap analogue binding; design: species or system Xenopus laevis; details: 10% glycerol
Text: as §1, §2, §3, §4

heIF4E1b [8] = assay: as above; design: species or system human; details: without glycerol
Text: as §1, §2, §3, §4

XeIF4E1a [9] = assay: as above; design: species or system Xenopus laevis; details: without glycerol
Text: as §1, §2, §3, §4

[10] = system: lung, breast cancer and malignant mesothelioma cells; design: method as in PMID 23289910, PMID 24711125; details: with gemcitabine or pemetrexed; cited from earlier work
eIF4E1a [11] = system: eIF4E1a; design: method as in PMID 15317978; details: cited from earlier work

T2 sequence (P48597 whole entry): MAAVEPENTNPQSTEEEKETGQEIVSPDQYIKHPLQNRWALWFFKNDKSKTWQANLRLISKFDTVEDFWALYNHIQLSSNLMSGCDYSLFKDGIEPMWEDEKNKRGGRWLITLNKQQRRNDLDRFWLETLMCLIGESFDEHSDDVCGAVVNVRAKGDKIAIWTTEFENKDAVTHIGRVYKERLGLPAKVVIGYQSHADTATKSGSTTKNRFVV
T7 sequence (P48597 whole entry M82S/E101S/K102R/S195A/T206L/T207S): as the sequence (P48597 whole entry) above, with M82S, E101S, K102R, S195A, T206L, T207S counted along it
T3 sequence (P48597 whole entry K102R): as the sequence (P48597 whole entry) above, with K102R counted along it
T4 sequence (P48597 whole entry E101S): as the sequence (P48597 whole entry) above, with E101S counted along it
T5 sequence (P48597 whole entry M82S/E101S/K102R/S195A): as the sequence (P48597 whole entry) above, with M82S, E101S, K102R, S195A counted along it
T6 sequence (P48597 whole entry E101S/K102R/S195A): as the sequence (P48597 whole entry) above, with E101S, K102R, S195A counted along it
T9 sequence (P06730 whole entry): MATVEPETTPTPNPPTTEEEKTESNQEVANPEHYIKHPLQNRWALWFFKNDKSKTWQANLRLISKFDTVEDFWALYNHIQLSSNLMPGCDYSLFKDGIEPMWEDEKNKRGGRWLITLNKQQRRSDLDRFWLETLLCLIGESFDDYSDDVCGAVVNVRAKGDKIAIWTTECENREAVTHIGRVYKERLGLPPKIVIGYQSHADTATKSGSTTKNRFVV
T8 sequence (P48597 whole entry E101S/K102R): as the sequence (P48597 whole entry) above, with E101S, K102R counted along it

COC1C(COP(=O)([O-])OP(=O)(O)OP(=O)(O)OCC2OC(n3cnc4c(=O)[nH]c(N)nc43)C(O)C2O)OC(n2c[n+](C)c3c(=O)[nH]c(N)nc32)C1O (centres unmarked) [m^7,3′OGpppG]
inhibitory potency and translational efficiency compared with m^7GpppG [1]: higher inhibitory potency and translational efficiency

Cn1c[n+]([C@@H]2O[C@H](COP(=O)(O)O)[C@@H](O)[C@H]2O)c2nc(N)[nH]c(=O)c21 [m^7GMP]
IC50 (in vitro translation): 382 µM | Kas − glycerol heIF4E1b (heIF4E1b [2]): 0.628 ± 0.016 μM^− 1 | Kas + glycerol XeIF4E1a (XeIF4E1a [3]): 0.256 ± 0.018 μM^− 1 | Kas − glycerol XeIF4E1a (XeIF4E1a [3]): 0.567 ± 0.012 μM^− 1 | Kd (eIF4E1a [4]): 7.5 µM

Nc1nc2c(c(=O)[nH]1)[n+](Cc1ccccc1)cn2[C@@H]1O[C@H](COP(=O)([O-])O)[C@@H](O)[C@H]1O [bn^7GMP]
IC50 (in vitro translation): 113 µM | Kd (eIF4E1a [4]): 0.8 µM | fold higher binding to eIF4E1a than m^7GMP (eIF4E1a [4]): 10 fold

Cn1c[n+]([C@@H]2O[C@H](COP(=O)(O)OP(=O)([O-])O)[C@@H](O)[C@H]2O)c2nc(N)[nH]c(=O)c21 [m^7GDP]
Kas X4E1a1’ (X4E1a1’ (K102R)): 11.09 ± 0.21 µM⁻¹ | Kas X4E1a1 (X4E1a1 (E101S)): 10.1 ± 1.2 µM⁻¹ | Kas X4E1a4 [5]: 7.68 ± 0.40 µM⁻¹ | Kas X4E1a3 [6]: 8.53 ± 0.36 µM⁻¹ | Kas + glycerol X4E1a6 ([7]; 10% glycerol, Fig. 5d): 3.68 ± 0.10 µM⁻¹ | Kas X4E1a6 ([7]; mutant (E101S/K102R/S195A/M82S/T206L/T207S) of XeIF4E1a): 6.82 ± 0.17 µM⁻¹ | Kas X4E1a2 (X4E1a2 (E101S/K102R)): 8.80 ± 0.16 µM⁻¹ | Kas − glycerol heIF4E1a (heIF4E1a): 17.76 ± 0.34 ^b μM^− 1 | Ratio Kas (X4E1a) to Kas (X4E1bΔN27) (XeIF4E1bΔN27): 2.45 | Kas + glycerol XeIF4E1bΔN27 (XeIF4E1bΔN27; equilibrium association constant): 2.43 ± 0.15 μM^− 1 | IC50 (in vitro translation): 7.5 µM | Ratio Kas (h4E1a) to Kas (h4E1b) (heIF4E1b [8]): 2.32 | Kas − glycerol heIF4E1b (heIF4E1b [2]): 7.64 ± 0.71 μM^− 1 | Kas + glycerol XeIF4E1a (XeIF4E1a [3]): 5.97 ± 0.37 μM^− 1 | Kas − glycerol XeIF4E1a (XeIF4E1a [3]): 11.42 ± 0.50 μM^− 1 | Ratio Kas (h4E1a) to Kas (X4E1a) (XeIF4E1a [9]): 1.56

Nc1nc2c(c(=O)[nH]1)[n+](Cc1ccccc1)cn2[C@@H]1O[C@H](COP(=O)(O)NCCc2c[nH]c3ccccc23)[C@@H](O)[C@H]1O [4Ei-1]
effect on malignant phenotypes and chemosensitization [10]: suppresses malignant phenotypes and chemosensitizes cells

Nc1nc2c(ncn2[C@@H]2O[C@H](COP(=O)(O)OP(=O)(O)OP(=O)([O-])OP(=O)(O)OC[C@H]3O[C@@H]([n+]4cn(Cc5ccccc5)c5c(=O)[nH]c(N)nc54)[C@H](O)[C@@H]3O)[C@@H](O)[C@H]2O)c(=O)[nH]1 [bn^7GppppG]
cap-binding affinity to eIF4E1a versus methylated counterpart (eIF4E1a [11]): no increase in cap-binding affinity to eIF4E1a was observed

Nc1nc2c(ncn2[C@@H]2O[C@H](COP(=O)(O)OP(=O)([O-])OP(=O)(O)OC[C@H]3O[C@@H]([n+]4cn(Cc5ccccc5)c5c(=O)[nH]c(N)nc54)[C@H](O)[C@@H]3O)[C@@H](O)[C@H]2O)c(=O)[nH]1 [bn^7GpppG]
inhibitory potency and translational efficiency compared with m^7GpppG [1]: higher inhibitory potency and translational efficiency | cap-binding affinity to eIF4E1a versus methylated counterpart (eIF4E1a [11]): no increase in cap-binding affinity to eIF4E1a was observed
